The target in this assay is SOS1/KRAS WT (Homo sapiens (Human), UniProt Q07889). Nature of the assay: SOS1/KRAS WT HTRF binding assay (FRET-based protein-protein interaction). The note with it: inhibition of His6-SOS1 (aa564-1049, 40 nM) binding to GST-KRAS-WT (aa1-188, 40 nM); at least two independent replicates; read-out: SOS1/KRAS WT HTRF Binding assay pIC50 (converted). From the text: The capacity of compounds to inhibit SOS1 binding to KRAS-WT (wild-type) was quantified using a FRET-based protein-protein interaction assay. The assay is based on the transfer of energy between two fluorophores, a donor and an acceptor, when in close proximity. In this instance, the donor is a Europium-conjugated α-GST antibody that binds to GST-tagged KRAS-WT, and the acceptor is an XL665-conjugated α-His 6 antibody that binds to His 6-tagged SOS1. Binding of SOS1 to KRAS-WT results in an increased fluorescent signal at emission wavelength of 665 nm which can be detected on the EnVision plate reader. Compounds that inhibit binding will reduce the 665 nm signal emitted. Recombinant KRAS-WT protein (40 nM; Human KRAS, aa1-188 recombinant protein with N-terminal GST-tag) and SOS1 protein (40 nM; Human SOS1 exchange domain, aa564-1049 with N-terminal 6His-tag) were mixed together in assay buffer (5 mM HEPES pH7.3, 150 mM NaCl, 10 mM EDTA, 5 mM MgCl2, 0.05% BSA, 0.0025% NP-40, 1 mM DTT and 100 mM KF) and incubated at room temperature with a dose response of compound in a 384-well low volume white plate and a final volume of 5 ul. After a 60 minute incubation, 5 ul of 4 nM anti-GST-Eu(K) (Cisbio, France) combined with 20 nM anti-6His-XL665 (Cisbio, France), diluted in assay buffer, was added to the plate. Following a further 4 hr incubation at room temperature, time-resolved fluorescence was measured on the EnVision plate reader. DMSO (0.05%) and 10 μM reference compound were used to generate the Max and Min assay signals, respectively. Data was analysed using a four-parameter logistic model to calculate IC50 values, with at least two independent replicates performed for each compound.
SOS1/KRAS WT, sequence (Q07889 564-1049): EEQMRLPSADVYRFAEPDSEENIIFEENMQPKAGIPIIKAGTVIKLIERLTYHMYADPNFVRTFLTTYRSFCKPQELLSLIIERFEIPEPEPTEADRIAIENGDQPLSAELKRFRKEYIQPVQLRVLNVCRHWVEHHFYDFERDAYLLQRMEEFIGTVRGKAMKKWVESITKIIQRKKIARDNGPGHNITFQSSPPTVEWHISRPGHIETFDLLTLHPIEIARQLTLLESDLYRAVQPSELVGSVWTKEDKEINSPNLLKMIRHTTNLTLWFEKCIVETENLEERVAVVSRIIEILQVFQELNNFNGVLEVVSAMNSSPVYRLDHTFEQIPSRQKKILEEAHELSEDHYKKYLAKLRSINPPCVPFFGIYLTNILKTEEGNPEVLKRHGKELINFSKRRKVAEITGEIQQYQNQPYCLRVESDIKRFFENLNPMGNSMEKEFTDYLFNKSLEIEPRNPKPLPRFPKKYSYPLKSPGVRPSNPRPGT
Data was analyzed using a four-parameter logistic model to calculate IC50 values, with at least two independent replicates performed for each compound.
With `Cc1c(C#N)cccc1[C@@H](C)Nc1nnc(C)c2cc3c(cc12)n(C1CC1)c(=O)n3C` [Compound 47, 2-methyl-3-[(1R)-1-[(3-cyclopropyl-1,8-dimethyl-2-oxo-imidazo[4,5-g]phthalazin-5-yl)amino]ethyl]benzonitrile], the IC50 is 0.0138 µM.

For `Cc1c(C#N)cccc1[C@@H](C)Nc1nnc(C)c2cc3c(cc12)N(C)C(=O)C3(C)C` [Compound 48, 2-methyl-3-[(1R)-1-[(1,3,3,5-tetramethyl-2-oxo-pyrrolo[3,2-g]phthalazin-8-yl)amino]ethyl]benzonitrile], the IC50 is 0.0135 µM.

In the case of `Cc1c(C#N)cccc1[C@@H](C)Nc1nnc(C)c2cc3c(cc12)n(C(C)(C)C)c(=O)n3C` [Compound 49, 2-methyl-3-[(1R)-1-[(3-tert-butyl-1,8-dimethyl-2-oxo-imidazo[4,5-g]phthalazin-5-yl)amino]ethyl]benzonitrile], the IC50 was 0.0112 µM.

As for `Cc1nnc(N[C@H](C)c2cccc(C(F)(F)F)c2)c2cc3c(cc12)n(C)c(=O)n3CC(F)F` [Compound 50, 3-(2,2-difluoroethyl)-1,8-dimethyl-5-[[(1R)-1-[3-(trifluoromethyl)phenyl]ethyl]amino] imidazo[4,5-g]phthalazin-2-one], the IC50 was 0.0132 µM.

Take `Cc1nnc(N[C@H](C)c2cc(F)cc(C(F)(F)CO)c2)c2cc3c(cc12)n(C)c(=O)n3C` [Compound 51, 5-[[(1R)-1-[3-(1,1-difluoro-2-hydroxy-ethyl)-5-fluoro-phenyl]ethyl]amino]-1,3,8-trimethyl-imidazo[4,5-g]phthalazin-2-one]: the IC50 was 0.0234 µM.

`Cc1nnc(N[C@H](C)c2cccc(C(F)(F)F)c2F)c2cc3c(cc12)n(C)c(=O)n3C1CC1` [Compound 52, 3-cyclopropyl-1,8-dimethyl-5-[[(1R)-1-[2-fluoro-3-(trifluoromethyl)phenyl]ethyl]amino] imidazo[4,5-g]phthalazin-2-one]: the IC50 was 0.00813 µM.

With `Cc1nnc(N[C@H](C)c2cccc(C(F)(F)CN)c2F)c2cc3c(cc12)n(C)c(=O)n3C(C)(C)C` [Compound 53, 3-tert-butyl-1,8-dimethyl-5-[[(1R)-1-[3-(2-amino-1,1-difluoro-ethyl)-2-fluoro-phenyl]ethyl]amino]imidazo[4,5-g]phthalazin-2-one], the IC50 was 0.00501 µM.

Regarding `Cc1c([C@@H](C)Nc2nnc(C)c3cc4c(cc23)n(C)c(=O)n4C)cccc1C(F)(F)F` [Compound 54, 1,3,8-trimethyl-5-[[(1R)-1-[2-methyl-3-(trifluoromethyl)phenyl]ethyl]amino] imidazo[4,5-g]phthalazin-2-one], the IC50 was 0.00617 µM.

Regarding `COc1c([C@@H](C)Nc2nnc(C)c3cc4c(cc23)n(C)c(=O)n4C)cccc1C(F)(F)F` [Compound 55, 5-[[(1R)-1-[2-methoxy-3-(trifluoromethyl)phenyl]ethyl]amino]-1,3,8-trimethyl-imidazo[4,5-g]phthalazin-2-one], the IC50 is 0.0575 µM.

Consider `Cc1nnc(N[C@H](C)c2cccc(C(F)(F)F)c2)c2cc3c(cc12)n(C1CC1)c(=O)n3C` [Compound 56, 1-cyclopropyl-3,8-dimethyl-5-[[(1R)-1-[3-(trifluoromethyl)phenyl]ethyl]amino] imidazo[4,5-g]phthalazin-2-one], for which the IC50 is 0.0115 µM.

For `Cc1nnc(N[C@H](C)c2ccc3cn[nH]c3c2)c2cc3c(cc12)n(C)c(=O)n3C` [Compound 57, 5-[[(1R)-1-(1H-indazol-6-yl)ethyl]amino]-1,3,8-trimethyl-imidazo[4,5-g]phthalazin-2-one], the IC50 was 0.0933 µM.

As to `Cc1c([C@@H](C)Nc2nnc(C)c3cc4c(cc23)n(C2CC2)c(=O)n4C)cccc1C(F)(F)F` [Compound 58], the IC50 was 0.00661 µM.

Regarding `Cc1nnc(N[C@H](C)c2cccc(C(F)(F)C(C)(C)O)c2F)c2cc3c(cc12)C(C)(C)C(=O)N3C1CC1` [Compound 59, 1-cyclopropyl-3,3,5-trimethyl-8-[[(1R)-1-[3-(1,1-difluoro-2-hydroxy-2-methyl-propyl)-2-fluoro-phenyl]ethyl]amino]pyrrolo[2,3-g]phthalazin-2-one], the IC50 is 0.00794 µM.

Take `Cc1nnc(N[C@H](C)c2cccc3[nH]ncc23)c2cc3c(cc12)n(C)c(=O)n3C` [Compound 60, 5-[[(1R)-1-(1H-indazol-4-yl)ethyl]amino]-1,3,8-trimethyl-imidazo[4,5-g]phthalazin-2-one]: the IC50 was 0.209 µM.

Consider `Cc1nnc(N[C@H](C)c2cccc3c(F)cn(C)c23)c2cc3c(cc12)n(C)c(=O)n3C` [Compound 61, 1,3,8-trimethyl-5-[[(1R)-1-(3-fluoro-1-methyl-indol-7-yl)ethyl]amino]imidazo[4,5-g]phthalazin-2-one], for which the IC50 is 0.1 µM.

On to `Cc1nnc(N[C@H](C)c2cccc(C(F)F)c2F)c2cc3c(cc12)C(C)(C)C(=O)N3C1CC1` [Compound 62, 1-cyclopropyl-3,3,5-trimethyl-8-[[(1R)-1-[3-(difluoromethyl)-2-fluoro-phenyl]ethyl]amino]pyrrolo[2,3-g]phthalazin-2-one], for which the IC50 was 0.0107 µM.

In the case of `CNCC(F)(F)c1cccc([C@@H](C)Nc2nnc(C)c3cc4c(cc23)n(C)c(=O)n4C)c1F` [Compound 63, 1,3,8-trimethyl-5-[[(1R)-1-[3-[1,1-difluoro-2-(methylamino)ethyl]-2-fluoro-phenyl]ethyl]amino]imidazo[4,5-g]phthalazin-2-one], the IC50 is 0.0158 µM.

As to `Cc1nnc(N[C@H](C)c2cccc(C(F)(F)C(C)(C)O)c2)c2cc3c(cc12)n(C)c(=O)n3C` [Compound 64, 1,3,8-trimethyl-5-[[(1R)-1-[3-(1,1-difluoro-2-hydroxy-2-methyl-propyl)phenyl]ethyl]amino]imidazo [4,5-g]phthalazin-2-one], the IC50 is 0.00813 µM.

Turning to `Cc1nnc(N[C@H](C)c2cccc(C(F)(F)C(C)(C)O)c2)c2cc3c(cc12)C(C)(C)C(=O)N3C1CC1` [Compound 65, 1-cyclopropyl-3,3,5-trimethyl-8-[[(1R)-1-[3-(1,1-difluoro-2-hydroxy-2-methyl-propyl)phenyl]ethyl]amino]pyrrolo [2,3-g]phthalazin-2-one], the IC50 was 0.00977 µM.

Take `Cc1c([C@@H](C)Nc2nnc(C)c3cc4c(cc23)N(C2CC2)C(=O)C4(C)C)cccc1C(F)(F)CO` [Compound 66, 1-cyclopropyl-3,3,5-trimethyl-8-[[(1R)-1-[3-(1,1-difluoro-2-hydroxy-ethyl)-2-methyl-phenyl]ethyl]amino]pyrrolo[2,3-g]phthalazin-2-one]: the IC50 was 0.00851 µM.

In the case of `Cc1nnc(N[C@H](C)c2cccc(C(F)(F)C(C)(C)O)c2)c2cc3c(cc12)n(C)c(=O)n3C1CC1` [Compound 67, 3-cyclopropyl-1,8-dimethyl-5-[[(1R)-1-[3-(1,1-difluoro-2-hydroxy-2-methyl-propyl)phenyl]ethyl]amino]imidazo [4,5-g]phthalazin-2-one], the IC50 was 0.00741 µM.

As to `Cc1c([C@@H](C)Nc2nnc(C)c3cc4c(cc23)n(C2CC2)c(=O)n4C)cccc1C(F)(F)CO` [Compound 68, 3-cyclopropyl-1,8-dimethyl-5-[[(1R)-1-[3-(1,1-difluoro-2-hydroxy-ethyl)-2-methyl-phenyl]ethyl]amino]imidazo[4,5-g]phthalazin-2-one], the IC50 was 0.00955 µM.

The record behind these values is patent US20250197407A1 (Jazz Pharmaceuticals Ireland Limited, priority 2022, published 2025).
